Key:
PxTAR1 [1] = target: T1, PxTAR1 (Plutella xylostella, UniProt A0A4D6I7S9); test: intracellular Ca2+ assay, Cal-590 AM, confocal imaging, stable HEK-293 line; format: cell-based
T1 construct: gene tar1; full-length ORF, 467 residues, 52266 Da; lentiviral vector pEB-TAR1-3flag-copGFP(T2A)PURO (3flag tag, GFP co-expressed via T2A)
T1 sequence (A0A4D6I7S9 1-467): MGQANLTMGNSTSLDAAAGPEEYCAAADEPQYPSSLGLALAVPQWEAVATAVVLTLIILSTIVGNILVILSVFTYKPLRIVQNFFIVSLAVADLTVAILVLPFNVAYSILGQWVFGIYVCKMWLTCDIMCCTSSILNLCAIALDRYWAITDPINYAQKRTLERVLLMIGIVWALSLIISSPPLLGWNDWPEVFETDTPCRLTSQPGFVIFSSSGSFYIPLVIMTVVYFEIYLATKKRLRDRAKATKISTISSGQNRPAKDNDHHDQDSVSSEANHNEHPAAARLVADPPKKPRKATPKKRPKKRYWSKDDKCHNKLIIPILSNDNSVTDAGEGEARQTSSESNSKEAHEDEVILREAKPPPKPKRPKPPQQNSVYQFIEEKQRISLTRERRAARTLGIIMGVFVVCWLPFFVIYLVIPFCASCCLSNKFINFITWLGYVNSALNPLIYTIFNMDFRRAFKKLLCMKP

PxTAR1 [2] = target: T1, PxTAR1; test: cAMP ELISA (Parameter Assay Kit), TAR1/[…] cells; format: cell-based

Row | SMILES | EC50 (PxTAR1 [1]) [nM] | IC50 (PxTAR1 [2]) [µM]
1 | CNC=Nc1ccc(C)cc1C [DPMF, N2-(2,4-Dimethylphenyl)-N1-methyformamidine] | 84.5 | 
2 | C=C(C)[C@@H]1CC=C(C)C(=O)C1 [L(-)-carvone] | 1.15 | 
3 | NC[C@H](O)c1ccc(O)cc1 [octopamine] |  | 13.7
4 | NCCc1ccc(O)cc1 [tyramine] | 13.1 | 0.446

— paper PMC6627746, “Pharmacological Properties of the Type 1 Tyramine Receptor in the Diamondback Moth, Plutella xylostella” (International Journal of Molecular Sciences, 2019)
